{"source": "paper PMC8761715", "about": "(Clinical Pharmacokinetics, 2021)", "key": {"[1]": {"conditions": "cited from earlier work"}, "[2]": {"conditions": "cited from earlier work", "remark": "listed apart in the source"}, "[3]": {"experiment": "Pharmacokinetics of microdosed edoxaban"}, "[4]": {"conditions": "cited from earlier work", "remark": "listed apart in the source"}, "CYP3A": {"test_system": "CYP3A", "conditions": "cited from earlier work"}, "P-gp/BCRP": {"test_system": "P-gp/BCRP", "conditions": "cited from earlier work"}, "CYP2C19": {"test_system": "CYP2C19", "conditions": "cited from earlier work"}, "CYP2C9": {"test_system": "CYP2C9", "conditions": "cited from earlier work"}, "CYP2D6": {"test_system": "CYP2D6", "conditions": "multiple doses of isavuconazole; cited from earlier work"}, "[5]": {"experiment": "Pharmacokinetics of microdosed rivaroxaban", "conditions": "rivaroxaban 25 µg microdose with the azole named as label, vs baseline"}, "[6]": {"experiment": "Plasma pharmacokinetics of the azole antifungals", "assay_type": "in vivo, human", "conditions": "after first 200 mg dose, fasting; LLOQ 0.1 µg/mL"}, "CYP2J2": {"test_system": "CYP2J2", "conditions": "cited from earlier work"}, "[7]": {"conditions": "posaconazole as tablets; general statement, ref not given; cited from earlier work"}, "[8]": {"conditions": "rivaroxaban with more than one combined P-gp and CYP3A4 inhibitor; atrial fibrillation patients; 95% CI 1.01–1.85, p = 0.04; cited from earlier work"}}, "data": [{"smiles": "COc1ccc(-n2nc(C(N)=O)c3c2C(=O)N(c2ccc(N4CCCCC4=O)cc2)CC3)cc1", "note": "[Apixaban, apixaban]", "values": [{"measurement": "Contribution of CYP enzymes other than CYP3A to overall elimination of apixaban", "setting": "[1]", "result": 6, "unit": "%"}]}, {"smiles": "CN1CCc2nc(C(=O)N[C@@H]3C[C@@H](C(=O)N(C)C)CC[C@@H]3NC(=O)C(=O)Nc3ccc(Cl)cn3)sc2C1", "note": "[Edoxaban, edoxaban]", "values": [{"measurement": "Edoxaban individual CL/F, range of previous study", "setting": "[2]; 18 study participants", "result": "490 to 1460", "unit": "mL/min"}, {"measurement": "Edoxaban bioavailability", "setting": "[2]", "result": "approximately 62%"}, {"measurement": "Edoxaban dose eliminated unchanged in the urine", "setting": "[2]", "result": "approximately 24%"}, {"measurement": "Edoxaban dose excreted unchanged in the faeces", "setting": "[2]", "result": "About 50%"}, {"measurement": "Part of edoxaban elimination by CYP-mediated metabolism", "setting": "[2]", "result": "< 4", "unit": "%"}, {"measurement": "Average CL/F of edoxaban higher than published values", "setting": "[3]; compared with 18 study participants of ref 24", "result": 30, "unit": "%"}, {"measurement": "Edoxaban individual CL/F, observed range", "setting": "[3]; this study, 50 µg microdose", "result": "600 to 2200", "unit": "mL/min"}]}, {"smiles": "OC(Cn1cncn1)(Cn1cncn1)c1ccc(F)cc1F", "note": "[Fluconazole, fluconazole]", "values": [{"measurement": "Rivaroxaban CL/F reduction with fluconazole, published", "setting": "[4]; therapeutic dose of rivaroxaban, 4 days pre-exposure", "result": 29, "unit": "%"}, {"measurement": "CYP3A inhibitor classification", "setting": "CYP3A", "result": "Mainly moderate"}, {"measurement": "P-gp/BCRP inhibitor classification", "setting": "P-gp/BCRP", "result": "not P-gp/BCRP, inhibitor"}, {"measurement": "CYP2C19 inhibitor classification", "setting": "CYP2C19", "result": "strong"}, {"measurement": "CYP2C9 inhibitor classification", "setting": "CYP2C9", "result": "moderate"}]}, {"smiles": "C[C@@H](c1nc(-c2ccc(C#N)cc2)cs1)[C@](O)(Cn1cncn1)c1cc(F)ccc1F", "note": "[Isavuconazole, isavuconazole]", "values": [{"measurement": "Increase in dextromethorphan exposure", "setting": "CYP2D6", "result": "< 20", "unit": "%"}, {"measurement": "CYP3A inhibitor classification", "setting": "CYP3A", "result": "Weak to moderate"}, {"measurement": "P-gp/BCRP inhibitor classification", "setting": "P-gp/BCRP", "result": "P-gp inhibitor, but not BCRP inhibitor"}, {"measurement": "Effect of azole on rivaroxaban pharmacokinetics (in words)", "setting": "[5]", "result": "did not alter any pharmacokinetic parameters"}]}, {"smiles": "CCC(C)n1ncn(-c2ccc(N3CCN(c4ccc(OCC5COC(Cn6cncn6)(c6ccc(Cl)cc6Cl)O5)cc4)CC3)cc2)c1=O", "note": "(stereo not drawn) [Itraconazole, itraconazole]", "values": [{"measurement": "Azole plasma concentrations (in words)", "setting": "[6]", "result": "below the LLOQ"}, {"measurement": "CYP3A inhibitor classification", "setting": "CYP3A", "result": "Strong"}, {"measurement": "P-gp/BCRP inhibitor classification", "setting": "P-gp/BCRP", "result": "P-gp/BCRP inhibitor"}]}, {"smiles": "CC(=O)N1CCN(c2ccc(OCC3COC(Cn4ccnc4)(c4ccc(Cl)cc4Cl)O3)cc2)CC1", "note": "(stereo not drawn) [Ketoconazole, ketoconazole]", "values": [{"measurement": "Apixaban Cmax increase with ketoconazole, published", "setting": "[1]; similar perpetrator dose, longer pretreatment", "result": 1.6, "unit": "fold"}, {"measurement": "Edoxaban AUC increase with ketoconazole, published", "setting": "[2]", "result": 1.9, "unit": "fold"}, {"measurement": "Rivaroxaban AUC increase with ketoconazole, published", "setting": "[4]", "result": 2.6, "unit": "fold"}, {"measurement": "CYP3A inhibitor classification", "setting": "CYP3A", "result": "Strong"}, {"measurement": "CYP2J2 inhibitor classification", "setting": "CYP2J2", "result": "potent inhibitor"}]}, {"smiles": "CC[C@@H]([C@H](C)O)n1ncn(-c2ccc(N3CCN(c4ccc(OC[C@@H]5CO[C@@](Cn6cncn6)(c6ccc(F)cc6F)C5)cc4)CC3)cc2)c1=O", "note": "[Posaconazole, posaconazole]", "values": [{"measurement": "Time at which maximum plasma concentrations are reached (tmax)", "setting": "[7]", "result": "4 to 5", "unit": "h"}, {"measurement": "CYP3A inhibitor classification", "setting": "CYP3A", "result": "Strong"}, {"measurement": "P-gp/BCRP inhibitor classification", "setting": "P-gp/BCRP", "result": "in vitro P-gp/BCRP inhibitor"}]}, {"smiles": "O=C(NC[C@H]1CN(c2ccc(N3CCOCC3=O)cc2)C(=O)O1)c1ccc(Cl)s1", "note": "[Rivaroxaban, rivaroxaban]", "values": [{"measurement": "Rivaroxaban P-gp/BCRP-dependent active renal secretion", "setting": "[4]", "result": "approximately 30 % of a dose"}, {"measurement": "Rivaroxaban bioavailability", "setting": "[4]", "result": "80–100%"}, {"measurement": "Rivaroxaban partial clearance by non-enzymatic hydrolysis", "setting": "[4]", "result": "approximately 14%"}, {"measurement": "Rivaroxaban partial clearance mediated by CYP2J2", "setting": "[4]", "result": "approximately 14%"}, {"measurement": "Rivaroxaban partial clearance mediated by CYP3A", "setting": "[4]", "result": "approximately 18 % of a dose"}, {"measurement": "Bleeding risk ratio (RR) compared with warfarin", "setting": "[8]", "result": 1.37}]}, {"smiles": "C[C@@H](c1ncncc1F)[C@](O)(Cn1cncn1)c1ccc(F)cc1F", "note": "[Voriconazole, voriconazole]", "values": [{"measurement": "CYP3A inhibitor classification", "setting": "CYP3A", "result": "Strong"}, {"measurement": "P-gp/BCRP inhibitor classification", "setting": "P-gp/BCRP", "result": "not P-gp/BCRP, inhibitor"}]}]}
